Laboratory results taken from patent publication US9353079B2, “Solid forms of an alpha, omega di-substituted dihydroxy cyclopentyl compound and methods for the preparation and use thereof” (Allergan, Inc., priority 2013, dated 2016).

Experiment: Solid-state stability of crystalline forms on storage, XRPD compared before and after
Type: physicochemical
Method: X-Ray powder diffraction patterns (XRPD) were obtained for the crystalline form described herein under the following conditions: • Equipment: Rigaku Smart-Lab • Scan range: 2 to 40° (2θ) • Scan speed: 3° (2θ) per minute • Step width: 0.02° (2θ) • X-ray information: Cu Kα, λ=1.54 Å, 40 kV/44 mA
Approximately 5-10 mg of the sample was gently applied on a low background Si holder and subjected to XRPD scanning.
In addition, another sample of 5-10 milligrams of crystalline Form A was maintained at a temperature of 22±2° C. and relative humidity of 59% for 144 hours.
A sample of 5-10 milligrams of crystalline Form B was maintained at a temperature of 22±2° C. and relative humidity of 59% for 120 hours.
In addition, another sample of 10-50 grams of crystalline Form B was maintained at a temperature of 22±2° C. and relative humidity of 0% for 120 hours.
In addition, a similar sample of crystalline Form B was maintained at a temperature of 40° C. for 16 hours.

SMILES	change of XRPD pattern / crystal form after storage (22±2° C., relative humidity 0%, 144 hours)	change of XRPD pattern / crystal form after storage (22±2° C., relative humidity 59%, 144 hours)	change of XRPD pattern / crystal form after storage (40° C., 25 minutes)	change of XRPD pattern / crystal form after storage (22±2° C., relative humidity 0%, 120 hours)	change of XRPD pattern / crystal form after storage (22±2° C., relative humidity 59%, 120 hours)	change of XRPD pattern / crystal form after storage (40° C., 16 hours)
NC(=O)CCC/C=C\C[C@@H]1[C@@H](/C=C/[C@@H](O)CCc2cc(Cl)sc2Cl)[C@H](O)C[C@@H]1O [Form A, 7-[3α,5α-dihydroxy-2-(3α-hydroxy-5-(3-(2,5-dichloro)thienyl)-1E-pentenyl)cyclopentyl]-5Z-heptenamide]	remained substantially unchanged	a substantial portion of crystalline Form A had converted to crystalline Form B	lack of significant change	–	–	–
NC(=O)CCC/C=C\C[C@@H]1[C@@H](/C=C/[C@@H](O)CCc2cc(Cl)sc2Cl)[C@H](O)C[C@@H]1O [Form B, 7-[3α,5α-dihydroxy-2-(3α-hydroxy-5-(3-(2,5-dichloro)thienyl)-1E-pentenyl)cyclopentyl]-5Z-heptenamide]	–	–	–	poorly-crystalline mixture of Forms A and B	remained substantially unchanged	a substantial portion of crystalline Form B had converted to the amorphous form
